Columns and labels:
Type in all cases: cell-based
[1] = tested on: AGS cells; test: Gastric cancer cell proliferation inhibitory activity (CellTiter Glo), AGS; details: Homo sapiens, AGS, 72 hours, relative IC50
Method: Experiments were performed using four types of gastric cancer cell lines (AGS, SNU-1, KATO-III, and MKN45) to measure the cell proliferation inhibitory ability of each Example compound. For AGS cells, 90 µL of cell suspension was dispensed into a 96-well plate using F-12K (Gibco) medium containing 10 % FBS, followed by incubation in a cell incubator at 37 °C and 5 % CO2. For SNU-1 and MKN45 cells, 90 µL of cell suspension was dispensed into a 96-well plate using RPMI1640 (Gibco) medium containing 10 % FBS, followed by incubation in a cell incubator at 37 °C and 5 % CO2. For KATO-III cells, 90 uL of cell suspension was dispensed into a 96-well plate using IMDM (Gibco) medium containing 10 % FBS, followed by incubation in a cell incubator at 37 °C and 5 % CO2. The next day, each Example compound dissolved and diluted in DMSO across 9 concentration ranges and a DMSO control group were added at 10 µL to each 96-well plate and treated for 72 hours. After completion of the compound treatment, 100 µL of CellTiter Glo (Promega) reagent was added to each well of the 96-well plate, followed by shaking for 10 minutes and standing at room temperature for 10 minutes. Luminescence signals were measured after inserting the 96-well plate into an Envision plate reader (PerkinElmer). Relative IC50 values were calculated by fitting a dose-response curve using XLfit (IDBS Ltd) software.
The gastric cancer cell proliferation inhibitory activities of the Example compounds measured by the method described above were evaluated according to the following criteria, and the results are presented in Table 16.

[2] = tested on: Cyclin K; test: Analysis of Cyclin K degradation ability in HCC70 breast cancer cells (western blot); details: 8 hours, compared to the negative control group (DMSO), FIGs. 1 to 3
Method: (§1) In order to confirm the Cyclin K degradation ability of the Example compounds, HCC70 breast cancer cells and MKN45 gastric cancer cells were cultured in RPMI-1640 medium supplemented with 10 % FBS, and then the cells were collected to prepare cell suspensions. The HCC70 breast cancer cell suspension was dispensed at a cell number of 2.0 X 10^6 per 6-well and cultured in a 5 % CO2 cell incubator at 37 °C for 24 hours, and the MKN45 gastric cancer cell suspension was dispensed at a cell number of 5.0 X 10^6 per 6-well and cultured in a 5 % CO2 cell incubator at 37 °C for 24 hours. The next day, each Example compound dissolved and diluted in DMSO across 4 to 5 concentration ranges and a negative control group (DMSO-treated group) were added to the 6-wells, and the HCC70 breast cancer cells were treated for 8 hours while the MKN45 gastric cancer cells were treated with the compounds for 8 hours or 24 hours. After completion of the compound treatment, the medium was removed, each cell was washed with PBS, and then 100 µL of RIPA buffer for cell lysis was added to each 6-well to collect cell lysates. The protein concentration of the cell lysates was quantified by the […], and loading buffer was added to adjust the protein concentration to 30 µg, followed by reaction at 85 °C for 10 minutes, centrifugation, and standing at room temperature. After electrophoresis on a 4-12 % Bis-Tris gel, proteins were transferred to a nitrocellulose membrane. Primary antibodies, Cyclin K (1:1000, Bethyl Lab) and Vinculin (1:1000, Sigma), were attached to the membrane, respectively, and then labeled using a secondary antibody (1:10000, LI-COR).

[3] = tested on: Cyclin K; test: Analysis of Cyclin K degradation ability in MKN45 gastric cancer cells (western blot); details: 8 hours or 24 hours, compared to the negative control group (DMSO), FIGs. 4 and 5
Method: as §1, with “After electrophoresis on a 4-12 % Bis-Tris gel, proteins were transferred to a nitrocellulose membrane. Primary antibodies, Cyclin K (1:1000, Bethyl Lab) and Vinculin (1:1000, Sigma), were attached to the membrane, respectively, and then labeled using a secondary antibody (1:10000, LI-COR).” left out

[4] = tested on: SW620; test: Colorectal cancer cell proliferation inhibitory activity, SW620; details: Homo sapiens, SW-620; 72 hours, Cell Counting Kit-8, relative IC50
Method: (§2) Experiments were performed using seven types of colorectal cancer cell lines to measure the cell proliferation inhibitory ability of each Example compound. DLD-1, LoVo, SW620, SW480, HCT116, HCT15, and HT29 cells were dispensed into a 96-well plate at 100 µL of cell suspension per well using RPMI1640 medium containing 10 % FBS and 1 % PS, followed by incubation in a cell incubator at 37 °C and 5 % CO2. The next day, each Example compound dissolved and diluted in DMSO across 10 concentration ranges and a DMSO control group were treated on the cells for 72 hours. After completion of the compound treatment, 10 µL of Cell Counting Kit-8 (Dojindo) reagent was added to each well of the 96-well plate, followed by incubation for 2 hours. […] were measured after inserting the 96-well plate into an Envision plate reader […]. Relative IC50 values were calculated by fitting a dose-response curve using Graphpad PRISM software.
(§3) The colorectal cancer cell proliferation inhibitory activities of the Example compounds measured by the method described above were evaluated according to the following criteria, and the results are presented in Table 19.

[5] = tested on: SW480; test: Colorectal cancer cell proliferation inhibitory activity, SW480; details: Homo sapiens, 72 hours, Cell Counting Kit-8, relative IC50
Method: as §2, §3

[6] = tested on: HCT15; test: Colorectal cancer cell proliferation inhibitory activity, HCT15; details: Homo sapiens, HCT-15; 72 hours, Cell Counting Kit-8, relative IC50
Method: as §2, §3

[7] = tested on: MKN1; test: Gastric cancer cell proliferation inhibitory activity (Cell Counting Kit-8), MKN1; details: Homo sapiens, MKN-1; 72 hours, Cell Counting Kit-8, relative IC50
Method: as §2, with “six” for “seven”, “gastric” for “colorectal”, “NCI-N87, SNU601, KATO-III, MKN1,” for “DLD-1, LoVo, SW620, SW480, HCT116, HCT15,”, “AGS” for “HT29”, “RPMI1640 medium containing 10 % FBS and 1 % PS, followed by incubation in a cell incubator at 37 °C and 5 % CO2. HS746T cells were dispensed into a 96-well plate at 100 µL of cell suspension per well using DMEM” for “RPMI1640”
(§4) The gastric cancer cell proliferation inhibitory activities of the Example compounds measured by the method described above were evaluated according to the following criteria, and the results are presented in Table 20.

[8] = tested on: AGS cells; test: Gastric cancer cell proliferation inhibitory activity (Cell Counting Kit-8), AGS; details: Homo sapiens, 72 hours, Cell Counting Kit-8, relative IC50
Method: as §2, with “six” for “seven”, “gastric” for “colorectal”, “NCI-N87, SNU601, KATO-III, MKN1,” for “DLD-1, LoVo, SW620, SW480, HCT116, HCT15,”, “AGS” for “HT29”, “RPMI1640 medium containing 10 % FBS and 1 % PS, followed by incubation in a cell incubator at 37 °C and 5 % CO2. HS746T cells were dispensed into a 96-well plate at 100 µL of cell suspension per well using DMEM” for “RPMI1640”
as §4

| Structure (SMILES) | IC50 [1] | Cyclin K degradation ability [2] | Cyclin K degradation ability [3] | IC50 [4] | IC50 [5] | IC50 [6] | IC50 [7] | IC50 [8] |
| --- | --- | --- | --- | --- | --- | --- | --- | --- |
| CN1CCN(c2cc(NCc3nc4ccc(F)c(F)c4[nH]3)c3ncc(C(F)(F)F)n3n2)CC1 [Example 8, N-((6,7-difluoro-1H-benzo[d]imidazol-2-yl)methyl)-6-(4-methylpiperazin-1-yl)-3-(trifluoromethyl)imidazo[1,2-b]pyridazin-8-amine] | ≤ 200 nM | strongly degrade Cyclin K | strongly degrade Cyclin K | ≤ 200 nM | ≤ 200 nM | ≤ 200 nM | ≤ 200 nM | ≤ 200 nM |
| CN1CCN(c2cc(NCc3nc4cc(Cl)c(Cl)cc4[nH]3)c3ncc(C(F)(F)F)n3n2)CC1 [Example 29, N-((5,6-dichloro-1H-benzo[d]imidazol-2-yl)methyl)-6-(4-methylpiperazin-1-yl)-3-(trifluoromethyl)imidazo[1,2-b]pyridazin-8-amine] | ≤ 200 nM | – | – | – | – | – | – | – |
| N#CC1CN(c2cc(NCc3nc4cc(Cl)c(Cl)cc4[nH]3)c3ncc(C(F)(F)F)n3n2)C1 [Example 30, 1-(8-(((5,6-dichloro-1H-benzol[d]imidazol-2-yl)methyl)amino)-3-(trifluoromethyl)imidazo[1,2-b]pyridazin-6-yl)azetidine-3-carbonitrile] | ≤ 200 nM | strongly degrade Cyclin K | – | – | – | – | – | – |
| Nc1ncc(-c2cc(NCc3nc4cc(Cl)c(Cl)cc4[nH]3)c3ncc(C(F)(F)F)n3n2)cn1 [Example 40] | – | strongly degrade Cyclin K | strongly degrade Cyclin K | – | ≤ 200 nM | ≤ 200 nM | ≤ 200 nM | ≤ 200 nM |

Source: EP4813991A1 (iLeadBMS Co., Ltd., priority 2023, dated 2025)
